The numbers were not newly measured in patent publication US20060188529A1 (priority 2004, published 2006), which cites them from elsewhere.

The test system of the data set is apo EKO mice.
[1] abbreviates: fenofibrate added to phytosterols.

For `CC(C)OC(=O)C(C)(C)Oc1ccc(C(=O)c2ccc(Cl)cc2)cc1` [fenofibrate, 2-[4-(4-chlorobenzoyl)phenoxy]-2-methyl-propanoic acid, 1-methylethyl ester], for the setting “combination of fenofibrate to phytosterols”, the “effect on plasma triglyceride levels” value is listed as “no effect”. Moreover, under setting [1], the “decrease of HDL cholesterol concentrations” value is given as 50% and the “increase of plasma total cholesterol levels” value is given as over 50%.
